Experimental data: US20260241039A1, “FLUORESCENT PROBES FOR MAGL” (Hoffmann-La Roche Inc., priority 2022, published 2026)

Each compound was assayed against T1, hMAGL (Homo sapiens, UniProt Q99685) (assay: 2-AG assay: MAGL inhibitory activity, hydrolysis of 2-arachidonoylglycerol to arachidonic acid followed by mass spectrometry). Conditions: 15 min pre-incubation at RT, 30 min reaction at RT, 8 μM 2-arachidonoylglycerol.
T1 sequence (Q99685 1-303): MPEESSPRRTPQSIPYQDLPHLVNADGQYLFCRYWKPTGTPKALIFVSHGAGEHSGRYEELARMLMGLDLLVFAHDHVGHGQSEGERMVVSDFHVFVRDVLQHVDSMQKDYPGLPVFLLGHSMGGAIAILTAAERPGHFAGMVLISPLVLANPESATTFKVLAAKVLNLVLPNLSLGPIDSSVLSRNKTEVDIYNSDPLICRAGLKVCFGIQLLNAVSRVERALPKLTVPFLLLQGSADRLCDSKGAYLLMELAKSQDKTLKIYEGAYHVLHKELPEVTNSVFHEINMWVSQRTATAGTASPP
Type: biochemical
Procedure: Compounds were profiled for MAGL inhibitory activity by determining the enzymatic activity by following the hydrolysis of the natural substrate 2-arachidonoylglycerol (2-AG) resulting in arachidonic acid, which can be followed by mass spectrometry. This assay is hereinafter abbreviated “2-AG assay”.
The 2-AG assay was carried out in 384 well assay plates (PP, Greiner Cat #784201) in a total volume of 20 μL. Compound dilutions were made in 100% DMSO (VWR Chemicals 23500.297) in a polypropylene plate in 3-fold dilution steps to give a final concentration range in the assay from 12.5 μM to […]. 0.25 μL compound dilutions (100% DMSO) were added to 9 μL MAGL in assay buffer (50 mM TRIS (GIBCO, 15567-027), 1 mM EDTA (Fluka, 03690-100 mL), 0.01% (v/v) Tween. After shaking, the plate was incubated for 15 min at RT. To start the reaction, 10 μL 2-arachidonoylglycerol in assay buffer was added. The final concentrations in the assay was […] and 8 μM 2-arachidonoylglyerol. After shaking and 30 min incubation at RT, the reaction was quenched by the addition of 40 μL of ACN containing 4 μM of d8-arachidonic acid. The amount of arachidonic acid was traced by an online SPE system (Agilent Rapidfire) coupled to a triple quadrupole mass spectrometer (Agilent 6460). A C18 SPE cartridge (G9205A) was used in an ACN/water liquid setup. The mass spectrometer was operated in negative electrospray mode following the mass transitions 303.1→259.1 for arachidonic acid and 311.1→267.0 for d8-arachidonic acid. The activity of the compounds was calculated based on the ratio of intensities [arachidonic acid/d8-arachidonic acid].

Going from `COc1ccc2c(CN3CCN(C(=O)N4CC[C@@H]5OCC(=O)N[C@@H]5C4)CC3)cc(=O)oc2c1` [Example 5, (4aR,8aS)-6-(4-((7-methoxy-2-oxo-2H-chromen-4-yl)methyl)piperazine-1-carbonyl)hexahydro-2H-pyrido[4,3-b][1,4]oxazin-3(4H)-one] to “(4aR,8aS)-6-(2-((5,5-difluoro-5H-4λ^4, 5λ^4-dipyrrolo[1,2-c:2,1′-f][1,3,2]diazaborinin-10-yl)oxy)-7-azaspiro[3.5]nonane-7-carbonyl)hexahydro-2H-pyrido[4,3-b][1,4]oxazin-3(4H)-one [Example 12]”, the IC50 falls from 3310 nM to 45 nM (74-fold). The second is the more potent here.

First: 2-(6-((5,5-difluoro-5H-4λ^4,5λ^4-dipyrrolo[1,2-c:2′,1′-f][1,3,2]diazaborinin-10-yl)methyl)-2-azaspiro[3.3]heptane-2-carbonyl)-7-oxa-2,5-diazaspiro[3.4]octan-6-one [Example 23]
Second: O=C1CO[C@H]2CCN(C(=O)N3CC4(CC(=CC5=C6C=CC=[N+]6[B-](F)(F)n6cccc65)C4)C3)C[C@H]2N1 [Example 15, (4aR,8aS)-6-(6-((5,5-difluoro-5H-4λ^4, 5λ^4-dipyrrolo[1,2-c:2,1′-f][1,3,2]diazaborinin-10-yl)methylene)-2-azaspiro[3.3]heptane-2-carbonyl)hexahydro-2H-pyrido[4,3-b][1,4]oxazin-3(4H)-one]
The IC50 of the first is 34-fold lower: 1.26 nM for the first, 43.3 nM for the second.

Going from `O=C1CO[C@H]2CCN(C(=O)N3CC4(CC(CC5=C6C=CC=[N+]6[B-](F)(F)n6cccc65)C4)C3)C[C@H]2N1` [Example 16, (4aR,8aS)-6-(6-((5,5-difluoro-5H-4λ^4,5λ^4-dipyrrolo[1,2-c:2,1′-f][1,3,2]diazaborinin-10-yl)methyl)-2-azaspiro[3.3]heptane-2-carbonyl)hexahydro-2H-pyrido[4,3-b][1,4]oxazin-3(4H)-one] to `O=C1CO[C@H]2CCN(C(=O)N3CC(COC4=C5C=CC=[N+]5[B-](F)(F)n5cccc54)C3)C[C@H]2N1` [Example 7, (4aR,8aS)-6-(3-(((5,5-difluoro-5H-4λ^4,5λ^4-dipyrrolo[1,2-c:2,1′-f][1,3,2]diazaborinin-10-yl)oxy)methyl)azetidine-1-carbonyl)hexahydro-2H-pyrido[4,3-b][1,4]oxazin-3(4H)-one], the IC50 rises from 0.77 nM to 2590 nM (3400-fold).

First: O=C1CO[C@H]2CCN(C(=O)N3CC4(CC(Oc5cc(=O)oc6ccccc56)C4)C3)C[C@H]2N1 [Example 4, (4aR,8aS)-6-(6-((2-oxo-2H-chromen-4-yl)oxy)-2-azaspiro[3.3]heptane-2-carbonyl)hexahydro-2H-pyrido[4,3-b][1,4]oxazin-3(4H)-one]
Second: 2-(7-((5,5-difluoro-5H-4λ^4,5λ^4-dipyrrolo[1,2-c:2′,1′-f][1,3,2]diazaborinin-10-yl)methyl)-2-azaspiro[3.5]nonane-2-carbonyl)-7-oxa-2,5-diazaspiro[3.4]octan-6-one [Example 21]
The IC50 of the first is 430-fold higher: 298 nM for the first, 0.69 nM for the second.

Compared with “(6-(3-cyclopropyl-1H-1,2,4-triazol-1-yl)-2-azaspiro[3.3]heptan-2-yl)(6-((5,5-difluoro-5H-4λ^4,5λ^4-dipyrrolo[1,2-c:2,1′-f][1,3,2]diazaborinin-10-yl)methyl)-2-azaspiro[3.3]heptan-2-yl)methanone [Example 25]”, `O=C1CO[C@H]2CCN(C(=O)N3CC(COc4ccc5ccc(=O)oc5c4)C3)C[C@H]2N1` [Example 2, (4aR,8aS)-6-(3-(((2-oxo-2H-chromen-7-yl)oxy)methyl)azetidine-1-carbonyl)hexahydro-2H-pyrido[4,3-b][1,4]oxazin-3(4H)-one] is 1400-fold higher in IC50: 0.34 nM for the first, 487 nM for the second.

Compared with `O=C1CO[C@H]2CCN(C(=O)N3CC(COc4cc(=O)oc5ccccc45)C3)C[C@H]2N1` [Example 3, (4aR,8aS)-6-(3-(((2-oxo-2H-chromen-4-yl)oxy)methyl)azetidine-1-carbonyl)hexahydro-2H-pyrido[4,3-b][1,4]oxazin-3(4H)-one], “(R)-4-(3-(6-((5,5-difluoro-5H-4λ^4,5λ^4-dipyrrolo[1,2-c:2′,1′-f][1,3,2]diazaborinin-10-yl)methyl)-2-azaspiro[3.3]heptan-2-yl)-3-oxopropyl)oxazolidin-2-one [Example 28]” is 660-fold lower in IC50: 667 nM for the first, 1.01 nM for the second.

“2-(6-((5,5-difluoro-5H-4λ^4,5λ^4-dipyrrolo[1,2-c:2′,1′-f][1,3,2]diazaborinin-10-yl)methylene)-2-azaspiro[3.3]heptane-2-carbonyl)-7-oxa-2,5-diazaspiro[3.4]octan-6-one [Example 22]” and “(6-((5,5-difluoro-5H-424, 5λ^4-dipyrrolo[1,2-c:2′,1′-f][1,3,2]diazaborinin-10-yl)methyl)-2-azaspiro[3.3]heptan-2-yl)(4-(5-methyloxazolo[4,5-b]pyridin-2-yl)piperazin-1-yl)methanone [Example 26]” are within 1.5-fold of each other in IC50: 12.6 nM for the first, 17.2 nM for the second.

First: 2-(2-((5,5-difluoro-5H-4λ^4,5λ^4-dipyrrolo[1,2-c:2′,1′-f][1,3,2]diazaborinin-10-yl)oxy)-7-azaspiro[3.5]nonane-7-carbonyl)-7-oxa-2,5-diazaspiro[3.4]octan-6-one [Example 13]
Second: 2-(7-((5,5-difluoro-5H-4λ^4,5λ^4-dipyrrolo[1,2-c:2′,1′-f][1,3,2]diazaborinin-10-yl)methylene)-2-azaspiro[3.5]nonane-2-carbonyl)-7-oxa-2,5-diazaspiro[3.4]octan-6-one [Example 20]
The IC50 of the first is 6-fold higher: 3.99 nM for the first, 0.67 nM for the second.

Going from “(4aR,8aS)-6-(6-((5,5-difluoro-3-(1H-pyrrol-2-yl)-5H-4λ^4,5λ^4-dipyrrolo[1,2-c:2′,1′-f][1,3,2]diazaborinin-10-yl)methyl)-2-azaspiro[3.3]heptane-2-carbonyl)hexahydro-2H-pyrido[4,3-b][1,4]oxazin-3(4H)-one [Example 30]” to “(4aR,8aS)-6-(7-((5,5-difluoro-5H-4λ^4, 5λ^4-dipyrrolo[1,2-c:2,1′-f][1,3,2]diazaborinin-10-yl)oxy)-2-azaspiro[3.5]nonane-2-carbonyl)hexahydro-2H-pyrido[4,3-b][1,4]oxazin-3(4H)-one [Example 10]”, the IC50 rises from 0.05 nM to 3.82 nM (76-fold).

Going from “(4aR,8aS)-6-(4-((5,5-difluoro-5H-4λ^4, 5λ^4-dipyrrolo[1,2-c:2,1′-f][1,3,2]diazaborinin-O-yl)methylene)piperidine-1-carbonyl)hexahydro-2H-pyrido[4,3-b][1,4]oxazin-3(4H)-one [Example 17]” to `NC(=O)[C@H]1CCN(C(=O)N2CC3(CC(CC4=C5C=CC=[N+]5[B-](F)(F)n5cccc54)C3)C2)C1` [Example 27, (S)-1-(6-((5,5-difluoro-5H-4λ^4,5λ^4-dipyrrolo[1,2-c:2,1′-f][1,3,2]diazaborinin-10-yl)methyl)-2-azaspiro[3.3]heptane-2-carbonyl)pyrrolidine-3-carboxamide], the IC50 falls from 1680 nM to 1.98 nM (850-fold).

Going from `O=C1CO[C@H]2CCN(C(=O)N3CCC(Nc4ccc([N+](=O)[O-])c5nonc45)CC3)C[C@H]2N1` [Example 6, (4aR,8aS)-6-(4-((7-nitrobenzo[c][1,2,5]oxadiazol-4-yl)amino)piperidine-1-carbonyl)hexahydro-2H-pyrido[4,3-b][1,4]oxazin-3(4H)-one] to `O=C1CO[C@H]2CCN(C(=O)N3CC4(CC(Oc5ccc6ccc(=O)oc6c5)C4)C3)C[C@H]2N1` [Example 1], the IC50 falls from 3810 nM to 255 nM (15-fold). The second is the more potent here.

Going from “6-(6-((5,5-difluoro-5H-4λ^4,5λ^4-dipyrrolo[1,2-c:2′,1′-f][1,3,2]diazaborinin-10-yl)methyl)-2-azaspiro[3.3]heptane-2-carbonyl)-2H-benzo[b][1,4]oxazin-3(4H)-one [Example 24]” to “2-(6-((5,5-difluoro-5H-4λ^4,5λ^4-dipyrrolo[1,2-c:2′,1′-f][1,3,2]diazaborinin-10-yl)oxy)-2-azaspiro[3.3]heptane-2-carbonyl)-7-oxa-2,5-diazaspiro[3.4]octan-6-one [Example 11]”, the IC50 falls from 7.5 nM to 1.76 nM (4.3-fold).

First: (4aR,8aS)-6-(6-((5,5-difluoro-3-phenyl-5H-4λ^4,5λ^4-dipyrrolo[1,2-c:2′,1′-f][1,3,2]diazaborinin-10-yl)methyl)-2-azaspiro[3.3]heptane-2-carbonyl)hexahydro-2H-pyrido[4,3-b][1,4]oxazin-3(4H)-one [Example 29]
Second: (4aR,8aS)-6-(6-((5,5-difluoro-5H-4λ^4, 5λ^4-dipyrrolo[1,2-c:2′,1′-f][1,3,2]diazaborinin-10-yl)oxy)-2-azaspiro[3.3]heptane-2-carbonyl)hexahydro-2H-pyrido[4,3-b][1,4]oxazin-3(4H)-one [Example 8]
The IC50 of the first is 120-fold lower: 0.66 nM for the first, 79.3 nM for the second.
